Results as given in the NIST ThermoML archive (doi:10.1016/j.tca.2012.01.013).

Experiments:
[1] = xn = mol fraction of the nth substance listed; conditions: 101 kPa, Liquid, Vibrating tube method
[2] = refractive index (Na D-line) (dimensionless); xn = mol fraction of the nth substance listed; conditions: 101 kPa, Liquid, Standard Abbe refractometry

COC(=O)c1ccccc1C(=O)OC [dimethyl 1,2-benzenedicarboxylate] + CCC(C)=O
Conditions	mass density, [1] [kg/m3]	refractive index, [2]
288.15 K, x1 = 0.1002	878.718	1.40705
288.15 K, x1 = 0.2001	936.554	1.42733
288.15 K, x1 = 0.3002	986.029	1.44555
288.15 K, x1 = 0.3997	1028.42	1.46042
288.15 K, x1 = 0.4982	1064.97	1.47261
288.15 K, x1 = 0.6001	1098.15	1.48425
288.15 K, x1 = 0.6993	1126.71	1.49362
288.15 K, x1 = 0.7993	1152.38	1.50271
288.15 K, x1 = 0.9002	1175.59	1.51071
288.15 K, x1 = 1	1196.26	1.51779
293.15 K, x1 = 0.1002	873.583	1.40471
293.15 K, x1 = 0.2001	931.496	1.42489
293.15 K, x1 = 0.3002	981.04	1.44315
293.15 K, x1 = 0.3997	1023.49	1.45808
293.15 K, x1 = 0.4982	1060.1	1.4703
293.15 K, x1 = 0.6001	1093.33	1.48198
293.15 K, x1 = 0.6993	1121.93	1.49141
293.15 K, x1 = 0.7993	1147.64	1.50053
293.15 K, x1 = 0.9002	1170.9	1.50855
293.15 K, x1 = 1	1191.59	1.51565
298.15 K, x1 = 0.1002	868.432	1.40224
298.15 K, x1 = 0.2001	926.423	1.42243
298.15 K, x1 = 0.3002	976.038	1.44075
298.15 K, x1 = 0.3997	1018.55	1.45576
298.15 K, x1 = 0.4982	1055.22	1.46801
298.15 K, x1 = 0.6001	1088.5	1.47972
298.15 K, x1 = 0.6993	1117.16	1.48918
298.15 K, x1 = 0.7993	1142.92	1.49835
298.15 K, x1 = 0.9002	1166.21	1.5064
298.15 K, x1 = 1	1186.93	1.51354
303.15 K, x1 = 0.1002	863.253	1.39965
303.15 K, x1 = 0.2001	921.334	1.41998
303.15 K, x1 = 0.3002	971.032	1.43839
303.15 K, x1 = 0.3997	1013.62	1.45342
303.15 K, x1 = 0.4982	1050.34	1.4657
303.15 K, x1 = 0.6001	1083.68	1.47746
303.15 K, x1 = 0.6993	1112.38	1.48696
303.15 K, x1 = 0.7993	1138.18	1.49618
303.15 K, x1 = 0.9002	1161.51	1.50426
303.15 K, x1 = 1	1182.28	1.51146
308.15 K, x1 = 0.1002	858.059	1.39705
308.15 K, x1 = 0.2001	916.232	1.41752
308.15 K, x1 = 0.3002	966.01	1.4359
308.15 K, x1 = 0.3997	1008.66	1.45091
308.15 K, x1 = 0.4982	1045.45	1.46339
308.15 K, x1 = 0.6001	1078.84	1.4752
308.15 K, x1 = 0.6993	1107.6	1.48475
308.15 K, x1 = 0.7993	1133.45	1.49399
308.15 K, x1 = 0.9002	1156.83	1.50211
308.15 K, x1 = 1	1177.62	1.50943
313.15 K, x1 = 0.1002	852.838	1.3943
313.15 K, x1 = 0.2001	911.111	1.41502
313.15 K, x1 = 0.3002	960.975	1.43328
313.15 K, x1 = 0.3997	1003.7	1.44834
313.15 K, x1 = 0.4982	1040.55	1.46101
313.15 K, x1 = 0.6001	1074.01	1.47289
313.15 K, x1 = 0.6993	1102.82	1.48252
313.15 K, x1 = 0.7993	1128.73	1.49187
313.15 K, x1 = 0.9002	1152.15	1.50006
313.15 K, x1 = 1	1172.97	1.50736
318.15 K, x1 = 0.1002	847.588	1.39158
318.15 K, x1 = 0.2001	905.966	1.4124
318.15 K, x1 = 0.3002	955.922	1.43077
318.15 K, x1 = 0.3997	998.73	1.44591
318.15 K, x1 = 0.4982	1035.65	1.45864
318.15 K, x1 = 0.6001	1069.17	1.47061
318.15 K, x1 = 0.6993	1098.05	1.48032
318.15 K, x1 = 0.7993	1124.01	1.48973
318.15 K, x1 = 0.9002	1147.47	1.49796
318.15 K, x1 = 1	1168.32	1.50524
323.15 K, x1 = 0.1002	842.312	1.38878
323.15 K, x1 = 0.2001	900.811	1.40956
323.15 K, x1 = 0.3002	950.87	1.42768
323.15 K, x1 = 0.3997	993.761	1.44306
323.15 K, x1 = 0.4982	1030.75	1.45602
323.15 K, x1 = 0.6001	1064.33	1.4681
323.15 K, x1 = 0.6993	1093.26	1.47795
323.15 K, x1 = 0.7993	1119.27	1.48748
323.15 K, x1 = 0.9002	1140.78	1.49582
323.15 K, x1 = 1	1163.67	1.5032
